Measurements published in patent publication US20080063628A1, “METHODS TO PROMOTE CELL DIFFERENTIATION” (priority 2006, published 2008).

Test system: amniotic fluid-derived cell line
Experiment: Two high dose trichostatin A treatments (first 48 h), gene expression by RT-PCR (Example 9);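 as to Gata-1 RT-PCR detection cycle: lower cycle number means higher gene expression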;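 as to HNF-3 beta RT-PCR detection cycle: lower cycle number means higher gene expression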
Assay type: cell-based, human
Conditions: for Gata1 gene expression / HNF-3 beta gene expression / Insulin gene expression / Pdx-1 gene expression / sox17 gene expression: 1.25 μM 0-48 h + 96-120 h
Procedure: Several cell lines obtained from different amniotic fluid specimens (see Example 14) and pancreas donors (see Example 13) were tested with similar results. Two lines at similar passage number but derived from different amniotic fluid specimens are shown in Table VIII-A and Table VIII-B for this example. One of these cell lines was also used in examples 2 and 4 above. In addition, this example also contains comparison data in Table VIII-C and Table VIII-D for a single pancreatic-derived stromal line grown to early and late passage number.
Amniotic fluid derived cells or pancreatic-derived stromal cells were seeded into 24-well tissue culture plates at a density of 5000/cm^2 and cultured in AMNIOMAX (Invitrogen) or DMEM with 10% FBS respectively under standard cell culture conditions until confluent. After reaching confluence, amniotic fluid derived cells were treated at time 0 hours with a dose of 1.25 μM trichostatin A, and pancreatic-derived stromal cells were treated with a dose of 5.0 μM trichostatin A solubilized in DMSO and medium. At time 48 hours, cell cultures underwent a complete medium change to remove all traces of trichostatin A. At time 96 hours, cell cultures were re-fed with fresh medium and received a second dose of trichostatin A at the same concentration as used previously. At time 120 hours, cell cultures again underwent a complete medium change and were cultured for an additional 24 hours or […] total incubation time. Samples were taken for RT-PCR at the times indicated in Table IX-A to D. RNA samples were obtained daily from the start of the experiment. Culture medium was removed, and cells were washed with PBS then collected in RLT with β-mercaptoethanol (Qiagen). RNA was purified using the RNeasy Mini Kit (Qiagen) and RNA quantity and quality was determined using a spectrophotometer. cDNA was made using the iScript cDNA synthesis kit (BioRad). Human pancreas cDNA was included as a control. Results were normalized against GAPDH expression levels.
[…] Samples of 20 ng cDNA was used in each Real-Time PCR reaction. RT-PCR was performed on the Applied Biosystems 7500, according to the methods described in Example 15. The data were analyzed using the accompanying software.
Real-time PCR amplifcation and quantitative analysis. Unless otherwise stated, all reagents were purchased from Applied Biosystems. Real-time PCR reactions were performed using the ABI PRISM™ 7500 Sequence Detection System. TAQMAN™ FAST UNIVERSAL PCR MASTER MIX™ (ABI, CA) was used with 20 ng of reverse transcribed RNA in a total reaction volume of 20 μl. Each cDNA sample was run in duplicate to allow correction of pipetting errors. Primers and FAM-labeled TAQMAN™ probes were used at concentrations of 200 nM. The level of expression for each target gene was normalized using the pre-developed Applied Biosystem's human glyceraldehyde-3-phosphate dehydrogenase (GAPDH) endogenous control kit. Primers and probes were designed using either ABI PRISM PRIMER EXPRESS™ software or a pre-developed ABI gene analysis kit. For each gene, either one of the primers or the probe were designed to be exon-boundary spanning. This eliminated the possibility of the primers/probe binding to any genomic DNA present. The primer and probe sets are listed as follows: Pdx-1 (Hs00426216), Insulin (Hs00355773), glucagon (Hs00174967), and FoxA2 (HNF 3-beta) (Hs00232764). The remaining primers were designed using the PRIMERS program (ABI, CA). After an initial 95° C. incubation for 20 sec, samples were cycled 40 times in two stages: a denaturation step at 95° C. for 3 sec, followed by an annealing/extension step at 60° C. for 30 sec.
For each primer/probe set, a cycle time value was determined as the cycle number at which the fluorescence intensity of the PCR reaction reached a specific value in the middle of the exponential region of amplification. […]

[1] = 1.25 μM, following the addition

CC(/C=C/C(=O)NO)=C\[C@@H](C)C(=O)c1ccc(N(C)C)cc1 [trichostatin A]
Gata1 gene expression (24 hrs): + (detectable between 35 and 40 cycles by RT-PCR) | HNF-3 beta gene expression (24 hrs): +++ (detectable at less than 35 cycles by RT-PCR with SE less than 0.9) | Insulin gene expression (24 hrs): nd (not detectable at >40 cycles by RT-PCR) | Pdx-1 gene expression (24 hrs): +++ (detectable at less than 35 cycles by RT-PCR with SE less than 0.9) | sox17 gene expression (24 hrs): +++ (detectable at less than 35 cycles by RT-PCR with SE less than 0.9) | Gata1 gene expression (48 hrs): nd (not detectable at >40 cycles by RT-PCR) | HNF-3 beta gene expression (48 hrs): +++ (detectable at less than 35 cycles by RT-PCR with SE less than 0.9) | Insulin gene expression (48 hrs): nd (not detectable at >40 cycles by RT-PCR) | Pdx-1 gene expression (48 hrs): +++ (detectable at less than 35 cycles by RT-PCR with SE less than 0.9) | sox17 gene expression (48 hrs): +++ (detectable at less than 35 cycles by RT-PCR with SE less than 0.9) | Gata1 gene expression (72 hrs): nd (not detectable at >40 cycles by RT-PCR) | HNF-3 beta gene expression (72 hrs): + (detectable between 35 and 40 cycles by RT-PCR) | Insulin gene expression (72 hrs): nd (not detectable at >40 cycles by RT-PCR) | Pdx-1 gene expression (72 hrs): nd (not detectable at >40 cycles by RT-PCR) | sox17 gene expression (72 hrs): +++ (detectable at less than 35 cycles by RT-PCR with SE less than 0.9) | Gata1 gene expression (96 hrs): nd (not detectable at >40 cycles by RT-PCR) | HNF-3 beta gene expression (96 hrs): nd (not detectable at >40 cycles by RT-PCR) | Insulin gene expression (96 hrs): nd (not detectable at >40 cycles by RT-PCR) | Pdx-1 gene expression (96 hrs): nd (not detectable at >40 cycles by RT-PCR) | sox17 gene expression (96 hrs): +++ (detectable at less than 35 cycles by RT-PCR with SE less than 0.9) | Gata1 gene expression (120 hrs): nd (not detectable at >40 cycles by RT-PCR) | HNF-3 beta gene expression (120 hrs): + (detectable between 35 and 40 cycles by RT-PCR) | Insulin gene expression (120 hrs): nd (not detectable at >40 cycles by RT-PCR) | Pdx-1 gene expression (120 hrs): + (detectable between 35 and 40 cycles by RT-PCR) | sox17 gene expression (120 hrs): +++ (detectable at less than 35 cycles by RT-PCR with SE less than 0.9) | Pdx-1 RT-PCR detection cycle (1.25 μM, after the second treatment): 37 cycles | Gata-1 RT-PCR detection cycle (1.25 μM, following first treatment): 37 cycles | HNF-3 beta RT-PCR detection cycle [1]: 31 cycles | Pdx-1 RT-PCR detection cycle [1]: 32 cycles | HNF-3 beta RT-PCR detection cycle (1.25 μM, following the second treatment): 35 cycles
